Tests used:
[1] = test system: conscious normotensive dogs; test: Blood pressure in conscious normotensive dogs (oral); type: in vivo, dog (mongrel); conditions: for % systolic blood pressure variation: Table II, oral; for Mean systolic blood pressure / % Δ of mean systolic blood pressure: Table V, single oral 20 mg/kg
Protocol: (§1) As for the experiments with conscious normotensive dogs, mongrel dogs with incannulated abdominal aorta or with incannulated abdominal aorta and cardiac left ventricle were used. The compounds were administered by oral route as powder in gelatine capsules. Mean blood pressure (M.B.P.) was registered directly using a Bentley pressure transducer.

[2] = test system: conscious renal hypertensive dogs; test: Systolic blood pressure in conscious renal hypertensive dogs (oral, Goldblatt's method); type: in vivo, dog (mongrel); conditions: for % systolic pressure variation: Table I; for % Δ (% variation of the S.B.P. over the basal value) / S.B.P. (systolic blood pressure): Table III; for S.B.P. (systolic blood pressure): mean ± SE
Protocol: The experiments herein described which use renal hypertensive dogs are conducted essentially as described in the above cited text.
(§2) More particularly, in the experiments with conscious renal hypertensive dogs, mongrel dogs with two clips on the renal arteries were used according to the Goldblatt's method. The compounds were administered by oral route as powder in gelatine capsules. Systolic blood pressure (SBP) was registered at the tail (indirect method).
^a S.B.P. = Systolic blood pressure. It is determined after oral
administration where three animals were employed for each dose. It is
expressed in mmHg as mean value ± SE.
^b % Δ = % variation of the S.B.P. over the basal value (time
0) at the indicated time after administration.

renal hypertensive dogs [3] = test: Heart rate in renal hypertensive dogs; type: in vivo, dog (mongrel); conditions: experiments of Table III, oral
Protocol: as §2

renal hypertensive dogs [4] = test: Tachiphylaxis experiment: daily oral administration for 7 consecutive days, systolic blood pressure; type: in vivo, dog; conditions: for % Δ of S.B.P., peak effect (7h) / S.B.P., basal value / S.B.P., peak effect (7h) / % Δ of S.B.P., basal value: Table IV, 10 mg/kg/die per os
[5] = test system: conscious normotensive dogs; test: Myocardial contractility in conscious normotensive dogs; type: in vivo, dog (mongrel); conditions: single oral 20 mg/kg; for Myocardial contractility / % Δ of myocardial contractility: Table V
Protocol: as §1
Myocardial contractility was calculated as
1/P·dp/dt ^(max)
The results of this experiment, which was conducted after a single oral administration of 20 mg/kg of the test compound, are summarized below: […]

mice = test: "running-fit" test (antagonism of the effects of morphine); type: in vivo, mouse; conditions: morphine 60 mg/Kg s.c.
Protocol: This test is conducted essentially as described in the literature.

[6] = Acute toxicity (LD50) in mice; conditions: mouse, in vivo
Protocol: The LD50 values of the compounds of the invention are generally higher than 500 mg/kg when given per os and generally higher than 200-300 mg/kg when given intraperitoneally to mice. In particular, the approximate LD50 values for compound 3 in mice were 1000 mg/kg after oral administration and 600 mg/kg after i.p. administration. […] Representative experiments were conducted essentially as described by B. N. Ames, J. McCann., E. Yamasaki, "Methods for detecting carcinogens and mutagens with the salmonella/microsome mutagenicy test" in Mutation Research, 31, 347-364, (1975).

renal hypertensive dogs [7] = test: CNS depressant effect and tachycardia during prolonged (7-day) treatment in dogs; type: in vivo, dog; conditions: per os 10 mg/kg/die, 7 days
mongrel dogs [8] = conditions: dog, in vivo
Beagle dogs = conditions: dog, in vivo, po
mongrel dogs [9] = test: CNS-depressant activity in mongrel dogs (oral); conditions: 100 mg/kg
[10] = renal hypertensive dogs, oral, 10 mg/kg
[11] = renal hypertensive dogs, oral, 20 mg/kg

Structure (SMILES): CC(C)n1c(CCN2CCN(c3ccccc3)CC2)nc2ccc3ccccc3c21 [Compound 1, 2-[2-(4-phenyl-1-piperazinyl)ethyl]-1-(1-methylethyl)-1H-naphth[1,2-d]imidazole]
- % systolic blood pressure variation ([1]; 1 mg/kg): -17%
- % systolic blood pressure variation ([1]; 5 mg/kg): -37%

Structure (SMILES): Cn1c(CCN2CCN(c3ccccc3)CC2)nc2ccc3ccccc3c21 [Compound 2, 2-[2-(4-phenyl-1-piperazinyl)ethyl]-1-methyl-1H-naphth-[1,2-d]imidazole]
- % systolic pressure variation [2, 10]: -32%
- % systolic blood pressure variation ([1]; 10 mg/kg): -30%

Structure (SMILES): CC(C)n1c(CCN2CCN(c3cccc(C(F)(F)F)c3)CC2)nc2ccc3ccccc3c21.O=C(O)CC(O)(CC(=O)O)C(=O)O [Compound 3, 2-[2-[4-(3-trifluoromethylphenyl)-1-piperazinyl]ethyl]-1-(1-methylethyl)-1H-naphth[1,2-d]imidazole, 2-hydroxy-1,2,3-propantricarboxylate]
- minimal effective dose ([2]; Canis lupus familiaris, po, read-out: dose active in reducing the systolic blood pressure): ≤ 5 mg/kg
- % systolic pressure variation [2, 11]: -24%
- % systolic pressure variation ([2]; renal hypertensive dogs, oral, 30 mg/kg): -20%
- % Δ (% variation of the S.B.P. over the basal value) ([2]; oral 5 mg/kg, 1 h): -3%
- S.B.P. (systolic blood pressure) ([2]; oral 5 mg/kg, 1 h): 205 ± 5 mmHg
- % Δ (% variation of the S.B.P. over the basal value) ([2]; oral 5 mg/kg, 3 h): -10%
- S.B.P. (systolic blood pressure) ([2]; oral 5 mg/kg, 3 h): 190 ± 5 mmHg
- % Δ (% variation of the S.B.P. over the basal value) ([2]; oral 5 mg/kg, 5 h): -12%
- S.B.P. (systolic blood pressure) ([2]; oral 5 mg/kg, 5 h): 185 ± 7 mmHg
- % Δ (% variation of the S.B.P. over the basal value) ([2]; oral 5 mg/kg, 7 h): -10%
- S.B.P. (systolic blood pressure) ([2]; oral 5 mg/kg, 7 h): 190 ± 4 mmHg
- S.B.P. (systolic blood pressure) ([2]; oral 5 mg/kg, time 0 h (basal value), 3 animals): 210 ± 7 mmHg
- % Δ (% variation of the S.B.P. over the basal value) ([2]; oral 10 mg/kg, 1 h): -8%
- S.B.P. (systolic blood pressure) ([2]; oral 10 mg/kg, 1 h): 190 ± 4 mmHg
- % Δ (% variation of the S.B.P. over the basal value) ([2]; oral 10 mg/kg, 3 h): -13%
- S.B.P. (systolic blood pressure) ([2]; oral 10 mg/kg, 3 h): 180 ± 7 mmHg
- % Δ (% variation of the S.B.P. over the basal value) ([2]; oral 10 mg/kg, 5 h): -22%
- S.B.P. (systolic blood pressure) ([2]; oral 10 mg/kg, 5 h): 160 ± 10 mmHg
- % Δ (% variation of the S.B.P. over the basal value) ([2]; oral 10 mg/kg, 7 h): -18%
- S.B.P. (systolic blood pressure) ([2]; oral 10 mg/kg, 7 h): 170 ± 8 mmHg
- S.B.P. (systolic blood pressure) ([2]; oral 10 mg/kg, time 0 h (basal value)): 205 ± 7 mmHg
- % Δ (% variation of the S.B.P. over the basal value) ([2]; oral 20 mg/kg, 1 h): -8%
- S.B.P. (systolic blood pressure) ([2]; oral 20 mg/kg, 1 h): 175 ± 7 mmHg
- % Δ (% variation of the S.B.P. over the basal value) ([2]; oral 20 mg/kg, 3 h): -14%
- S.B.P. (systolic blood pressure) ([2]; oral 20 mg/kg, 3 h): 165 ± 8 mmHg
- % Δ (% variation of the S.B.P. over the basal value) ([2]; oral 20 mg/kg, 5 h): -27%
- S.B.P. (systolic blood pressure) ([2]; oral 20 mg/kg, 5 h): 140 ± 7 mmHg
- % Δ (% variation of the S.B.P. over the basal value) ([2]; oral 20 mg/kg, 7 h): -32%
- S.B.P. (systolic blood pressure) ([2]; oral 20 mg/kg, 7 h): 130 ± 7 mmHg
- S.B.P. (systolic blood pressure) ([2]; oral 20 mg/kg, time 0 h (basal value)): 190 ± 8 mmHg
- duration of the reduction of the blood pressure ([2]; renal hypertensive dogs, oral): still present seven hours after administration
- % systolic blood pressure variation ([1]; 10 mg/kg): -16%
- % systolic blood pressure variation ([1]; 20 mg/kg): -15%
- Mean systolic blood pressure ([1]; 0 min (basal)): 120 mmHg
- % Δ of mean systolic blood pressure ([1]; 60 min): -0%
- Mean systolic blood pressure ([1]; 60 min): 120 mmHg
- % Δ of mean systolic blood pressure ([1]; 120 min): -12%
- Mean systolic blood pressure ([1]; 120 min): 106 mmHg
- % Δ of mean systolic blood pressure ([1]; 180 min): -15%
- Mean systolic blood pressure ([1]; 180 min): 102 mmHg
- % Δ of mean systolic blood pressure ([1]; 300 min): -17%
- Mean systolic blood pressure ([1]; 300 min): 100 mmHg
- % Δ of mean systolic blood pressure ([1]; 360 min): -12%
- Mean systolic blood pressure ([1]; 360 min): 106 mmHg
- heart rate (renal hypertensive dogs [3]): no increase in the heart rate was observed but only a slight and transient decrease
- % Δ of S.B.P., peak effect (7h) (renal hypertensive dogs [4]; day 1 of treatment): -20%
- S.B.P., basal value (renal hypertensive dogs [4]; day 1 of treatment): 210 mmHg
- S.B.P., peak effect (7h) (renal hypertensive dogs [4]; day 1 of treatment): 170 mmHg
- % Δ of S.B.P., basal value (renal hypertensive dogs [4]; day 3 of treatment): -5%
- % Δ of S.B.P., peak effect (7h) (renal hypertensive dogs [4]; day 3 of treatment): -20%
- S.B.P., basal value (renal hypertensive dogs [4]; day 3 of treatment): 200 mmHg
- S.B.P., peak effect (7h) (renal hypertensive dogs [4]; day 3 of treatment): 170 mmHg
- % Δ of S.B.P., basal value (renal hypertensive dogs [4]; day 5 of treatment): -12%
- % Δ of S.B.P., peak effect (7h) (renal hypertensive dogs [4]; day 5 of treatment): -24%
- S.B.P., basal value (renal hypertensive dogs [4]; day 5 of treatment): 185 mmHg
- S.B.P., peak effect (7h) (renal hypertensive dogs [4]; day 5 of treatment): 160 mmHg
- % Δ of S.B.P., basal value (renal hypertensive dogs [4]; day 7 of treatment): -15%
- % Δ of S.B.P., peak effect (7h) (renal hypertensive dogs [4]; day 7 of treatment): -29%
- S.B.P., basal value (renal hypertensive dogs [4]; day 7 of treatment): 180 mmHg
- S.B.P., peak effect (7h) (renal hypertensive dogs [4]; day 7 of treatment): 150 mmHg
- tachiphylaxis (renal hypertensive dogs [4]; per os daily for 7 consecutive days, 10 mg/kg/die): proved not to induce tachiphylaxis
- Myocardial contractility ([5]; 0 min (basal)): 48 mmHg sec^-1
- % Δ of myocardial contractility ([5]; 60 min): +10%
- Myocardial contractility ([5]; 60 min): 53 mmHg sec^-1
- % Δ of myocardial contractility ([5]; 120 min): +12%
- Myocardial contractility ([5]; 120 min): 54 mmHg sec^-1
- % Δ of myocardial contractility ([5]; 180 min): +10%
- Myocardial contractility ([5]; 180 min): 53 mmHg sec^-1
- % Δ of myocardial contractility ([5]; 300 min): +12%
- Myocardial contractility ([5]; 300 min): 54 mmHg sec^-1
- % Δ of myocardial contractility ([5]; 360 min): +6%
- Myocardial contractility ([5]; 360 min): 51 mmHg sec^-1
- effect on myocardial contractility (in words) ([5]; conscious normotensive dogs): proved not to reduce the myocardial contractility
- antagonism of morphine in "running-fit" test (mice; 30 mg i.p.): inactive
- antagonism of morphine in "running-fit" test (mice; 60 mg per os): inactive
- LD50 ([6]; ip, intraperitoneal): ~600 mg/kg
- LD50 ([6]; po, per os): ~1000 mg/kg
- CNS depressant effect during the prolonged treatment (renal hypertensive dogs [7]): no tachycardia or CNS depressant effect was observed
- tachycardia during the prolonged treatment (renal hypertensive dogs [7]): no tachycardia
- dose beginning CNS-depressant activity relative to effective antihypertensive dose (mongrel dogs [8]): at least about ten times higher
- dose at which signs of CNS-depression begin (mongrel dogs [8]; po): 100 mg/kg
- dose at which CNS-depressant effects begin (Beagle dogs): higher than 100 mg/kg
- signs of CNS-depression (mongrel dogs [9]): slight sedation and very slight motor incoordination

Structure (SMILES): Cn1c(CCN2CCN(c3ccc(Cl)cc3)CC2)nc2ccc3ccccc3c21 [Compound 4, 2-[2-[4-(4-chlorophenyl)-1-piperazinyl]ethyl]-1-methyl-1H-naphth[1,2-d]imidazole]
- % systolic pressure variation [2, 10]: -29%
- % systolic pressure variation [2, 11]: -31%

Structure (SMILES): COc1cccc(N2CCN(CCc3nc4ccc5ccccc5c4n3C(C)C)CC2)c1 [Compound 5, 2-[2-[4-(3-methoxyphenyl)-1-piperazinyl]ethyl]-1-(1-methylethyl)-1H-naphth[1,2-d]imidazole]
- % systolic pressure variation [2, 11]: -20%

Structure (SMILES): Cn1c(CCN2CCN(c3cccc(C(F)(F)F)c3)CC2)nc2ccc3ccccc3c21 [Compound 6, 2-[2-[4-(3-trifluoromethylphenyl)-1-piperazinyl]ethyl]-1-methyl-1H-naphth[1,2-d]imidazole]
- % systolic pressure variation [2, 11]: -39%

Structure (SMILES): CC(C)n1c(CCN2CCN(c3ccc(Cl)cc3)CC2)nc2ccc3ccccc3c21 [Compound 7, 2-[2-[4-(4-chlorophenyl)-1-piperazinyl]ethyl]-1-(1-methylethyl)-1H-naphth[1,2-d]imidazole]
- % systolic pressure variation ([2]; renal hypertensive dogs, oral, 2 mg/kg): -14%
- % systolic pressure variation ([2]; renal hypertensive dogs, oral, 5 mg/kg): -35%

From patent US4594348A, “Use of some 2-[2-[4-phenyl-1-piperazinyl]ethyl]-1H-naphth-[1,2-D]imidazole derivatives and their pharmaceutically acceptable salts in the treatment of cardiovascular diseases” (Gruppo Lepetit S.p.A., priority 1984, dated 1986)
